According to patent US20250051391A1, “PEPTIDE INHIBITORS AND METHODS FOR INHIBITING PROTEIN AGGREGATION IN NEURONS AND NEURODEGENERATIVE DISEASES” (THE GOVERNING COUNCIL OF THE UNIVERSITY OF TORONTO, priority 2021, published 2025):
Ends that are not written are not given here.

How the values were obtained:
[1] = system: rat primary cortical neurons; assay: Rat primary cortical neurons transduced with AAVs, immunofluorescence and immunoblot; format: cell-based
Procedure: Infected neurons were scraped from 6-well dishes and lysed with RIPA buffer containing protease inhibitor cocktail (Roche). The Triton X-100 soluble fraction was then separated from the insoluble pellet by centrifugation. Protein concentration was quantified using the DC protein assay (BioRad). For each condition, 20 μg of protein lysate was run on 4-15% acrylamide gels (BioRad) and subsequently transferred onto a polyvinylidene difluoride (PVDF) membrane. Blots were blocked with 5% skim milk in TBS+0.01% Tween-20 (TBS-T) for 1 h prior to incubation with primary antibody overnight at 4° C. Blots were subsequently washed 3 times in TBS-T for 10 minutes per wash, incubated in species specific secondary antibody for 1 h at 21° C., washed again, and then developed using ECL immunoblotting substrate (Pierce) and visualized on HyBlot CL autoradiographic film (Denville Scientific).
Pregnant rats (E17) of the Sprague-Dawley strain were purchased from Envigo. Embryos were surgically removed from the mothers and cortices dissected in Hanks Balanced salt solution (Gibco). The meninges were removed, and cells were dissociated using a papain dissociation system (Worthington) before being resuspended in Neurobasal medium A supplemented with antibiotic-antimycotic solution (Gibco), L-glutamine substitute (GlutaMAX™; Gibco) and factor B27 (Gibco). Cells were plated on poly-D-lysine coated glass coverslips at a density of 5×10^5 cells/well, or on poly-D-lysine coated 6-well cell culture plates at a density of 2×10^6 cells/well, and incubated at 37° C. in 5% CO2 with half media changes every 3 days. Cells were transduced with AAVs 2 days post-isolation at a multiplicity of infection (MOI) of 3000. Media containing AAV vectors were removed after 72 h and cells were fixed with 4% PFA for immunofluorescence staining or lysed for immunoblotting at 8 days post-isolation.
After fixation, cells were permeabilized with 0.2% Triton X-100 for 15 min, washed 3 times with PBS and then incubated with blocking solution (1% BSA, 22.52 mg/mL glycine, 0.1% Tween-20 in PBS) for 1 h. Primary antibodies were diluted in blocking solution and incubated overnight at 4° C. Following three washes with PBS, cells were next incubated with fluorescent secondary antibodies diluted in blocking solution for 1 h at room temperature. Following another 3 PBS washes, nuclei were counterstained with DAPI (ThermoFisher) and then coverslips were mounted on slides using fluorescence mounting medium (DAKO) and sealed using clear nail varnish.
Confocal images of primary cortical neurons, dopaminergic neurons, and LAMP1 staining within the SN were processed using Imaris software (Oxford instruments). Z stacks were projected to give a 3D reconstruction of the field of view and mean pixel intensity per GFP^+ cell (or RFP^+ cell for V1S/SV2 experiments) was calculated for a-syn or LAMP1 signal using the software's surfaces module. For LAMP1 staining within the SN, the number of LAMP1^+ puncta within GFP^+ cells was calculated for each field of view; 3 fields of view were imaged/animal.

[2] = system: HEK293 cells overexpressing A53T a-syn; assay: Cytotoxicity screen of lentiviral 7-mer peptide library, Alpha syn A53T cells under MG132; format: cell-based, human
Source text: A screening system to discover candidate peptides to perturb endogenous PPIs based on libraries of short linear interaction motifs that mediate a large fraction (˜30%) of human PPIs (10-12) was recently developed. Here, a lentiviral library of 50,549 7-mer peptide motifs (13) on a green fluorescent protein (GFP) scaffold (FIG. 1A) was used. Cells in a pooled format were infected and the amino acid sequence of each peptide served as its own barcode. By using a low multiplicity of infection followed by puromycin selection, each infected cell expressed one unique GFP-peptide. Peptides that reduced a-syn-mediated cytotoxicity or a-syn oligomers in parallel (FIG. 1A), were screened for.
To cause cytotoxicity relevant to PD, proteostatic stress in HEK293 cells was induced by inhibiting the proteasome with MG132 and inducing the overexpression of human a-syn (WT) from idiopathic PD in one screen and the more toxic A53T mutant from familial PD in a second screen. The combination of a-syn overexpression and pharmacological proteasome inhibition led to death of most cells, with only those that expressed a protective peptide surviving. By extracting genomic DNA from the surviving cells and amplifying the peptide coding sequences, the protective peptides (FIG. 1A) were identified.
PCR primers that included the Illumina adaptor sequences were used to amplify peptide coding sequences recovered from selection and cell sorting. Results were demultiplexed, and peptide counts were tallied. After demultiplexing, only reads with an average quality Phred score of >30 were selected, and frequencies were calculated. Finally, the reads were then normalized to the total number of peptides read for that sample population, and a scalar factor was applied. In parallel, ˜25 individual colonies were Sanger sequenced to compare to the NGS data.
Lentiviruses were made in a 15 cm dish format by transfecting packaging cells (293T) with a three-plasmid system as previously described. Viral transduction of HEK293T cells, tet-off split luciferase a-syn cells, tet-off parent cells, and SH-SY5Y cells were performed with a multiplicity of infection of 0.3 (MOI=0.3). Infected cells were selected in puromycin-containing medium to eliminate uninfected cells and three aliquots of cells were collected for sampling of the initial (TO) cell population. Cells were treated with MG132 at concentrations of 0 μM, 10 μM, 25 μM or 50 μM. For the cell viability screen, surviving cells were collected and gDNA was extracted for identification of peptide inhibitors of cell toxicity. For the inhibition of a-syn aggregation screen, split YFP-a-syn constructs were transfected following stable expression of the peptides. Cells were sorted based on their GFP fluorescence intensities with a FACSVantage SE cell sorter (BD Bioscience).
Genomic DNA (gDNA) from peptide expressing cells at different time-points was extracted using QIAamp DNA Blood Mini Kit. PCR amplifications of peptides from gDNA in parallel with the lentiviral plasmid library (naïve library) were performed using indexed Illumina PCR primers to incorporate both the Illumina adapter sequences and indexing sequences. Each 50 μl reaction contained 3.2 μg of template, 2×PCR buffer, 2× enhancer solution, 300 μM each dNTP, 900 nM each of Adapter A (5′-[…]-[…]-3′) (SEQ ID NO: 42) and Adapter B (5′-[…]-[…]-3′) (SEQ ID NO: 43), 1 mM MgSO4, 3.75 units of Platinum Pfx polymerase, and water to 50 μl. The PCR reaction was performed by denaturing at 94° C. for 5 minutes, followed by cycling (94° C. for 30 seconds, 65° C. for 30 seconds, 68° C. for 30 seconds)×28 cycles, 68° C. for 5 minutes, then cooling to 4° C. The resulting 244 bp product was purified by electrophoresis in 2% agarose followed by gel extraction. Peptide libraries were quantified using Quant-It assay (Invitrogen) and pooled. […]

| Substance | total a-syn fluorescence ([1]; neurons with V1S and SV2 or V1S alone (WT a-syn), RFP-tagged peptide vs Scramble1.3) | LAMP1 levels ([1]; rat cortical neurons expressing human A53T a-syn) | YFP fluorescence from co-expressed V1S and SV2 (a-syn oligomers) ([1]; rat primary cortical neurons) | endogenous a-syn fluorescence intensity ([1]; rat primary cortical neurons) | total A53T a-syn protein levels by immunoblotting of neuronal lysates ([1]; rat primary cortical neurons) | A53T a-syn fluorescence intensity ([1]; rat primary cortical neurons, AAV A53T a-syn plus GFP-tagged peptide, vs Scramble1.3) | fluorescence of YFP alone ([1]; rat primary cortical neurons, control) | levels of truncated A53T a-syn lacking amino acids 103-140 (HA immunostaining) ([1]; rat primary cortical neurons, vs Scramble1.3) | Slope Norm Reads [2] | Reads 0 uM MG132 ([2]; normalized Illumina peptide counts, 0 uM MG132) | Reads 10 UM MG132 ([2]; normalized Illumina peptide counts, 10 µM MG132) | Reads 25 UM MG132 ([2]; normalized Illumina peptide counts, 25 µM MG132) | Reads 50 UM MG132 ([2]; normalized Illumina peptide counts, 50 µM MG132) |
| --- | --- | --- | --- | --- | --- | --- | --- | --- | --- | --- | --- | --- | --- |
| DEEIERQLKALG [PDpep1.3] | significant lowering | restored LAMP1 levels | reduced YFP fluorescence | reduced fluorescence intensity | reduction | significant decrease | no effect | did not reduce |  |  |  |  |  |
| IPIQLKA [PDpep1, top hit of all screens; maps to CHMP2B residues 203-209] |  |  |  |  |  |  |  |  | 40.54 | 168 | 20 | 3859 | 13308 |
